Measured values as given in the NIST ThermoML archive (doi:10.1021/acs.jced.5b00943).
Numbers after ± are expanded uncertainties.

Settings: Liquid, Ebulliometric method (Recirculating still)

C=CC(C)C#N (centres undefined) [2-methyl-3-butenenitrile]
Settings | vapor or sublimation pressure [kPa]
297.57 K | 2.701 ± 0.055
304.35 K | 3.664 ± 0.074
309.86 K | 4.608 ± 0.093
315.95 K | 6.064 ± 0.12
318.68 K | 6.731 ± 0.14
321.34 K | 7.521 ± 0.15
324.85 K | 8.987 ± 0.18
327.15 K | 9.9 ± 0.2
331.76 K | 11.75 ± 0.23
335.25 K | 13.48 ± 0.27
339.53 K | 15.75 ± 0.32
343.65 K | 18.68 ± 0.37
352.65 K | 25.35 ± 0.51
356.05 K | 29.21 ± 0.58
359.56 K | 33.21 ± 0.67
364.85 K | 38.55 ± 0.77
369.25 K | 44.68 ± 0.89
373.25 K | 50.01 ± 1
376.09 K | 55.48 ± 1.1
379.75 K | 62.68 ± 1.3
382.83 K | 68.94 ± 1.4
387.65 K | 79.23 ± 1.6
391.95 K | 90.16 ± 1.8
394.25 K | 95.76 ± 1.9
